Assay results taken from patent US8592435B2, “Nitrogen-containing six-membered aromatic ring derivatives and pharmaceutical products containing the same” (Daiichi Sankyo Company, Limited, priority 2007, dated 2013).

Legend:
[1] = tested on: mixture of human vascular endothelial cells and fibroblasts; test: Test Example 2: ability to promote angiogenesis (angiogenesis test kit KZ-1000); format: cell-based; settings: Homo sapiens, 216 h, lumen length, % of control, day 9, read-out: Promotion of angiogenesis (%); for activity at 0.3 µM: Compound Conc. = 0.3 μM; for activity at 3 µM: Compound Conc. = 3 μM
Protocol: Using an angiogenesis test kit containing a mixture of human vascular endothelial cells and fibroblasts [KZ-1000; Kurabo], the ability of test compounds to promote angiogenesis was evaluated. Each test compound was added on days 1, 4, and 7 of the incubation period. On day 9, cells were immunostained with CD31 and photographed. Control cells were cultured under the same conditions, only without the addition of a test compound, and photographed.
The lumen length of the blood vessel was quantified from the obtained images using an angiogenesis-quantification software. The ability (%) of each test compound to promote angiogenesis was calculated from the following equation: The ability to promote angiogenesis (%)=[(measurement with a compound of interest)/(measurement of control)]×100
Example Compounds shown in Table 26 were used as test compounds.
Since bFGF gives a measurement of about 120 in this test, 120 is used as the threshold to determine whether a given compound has the ability to promote angiogenesis.

hippocampal neurons = test: Test Example 1: ability to promote axonal outgrowth; format: cell-based, Wistar rats; settings: Hippocampal neuron, 216 h; Compound Conc. = 3 μM; % of control; rat hippocampal neurons, day 9; read-out: Promotion of axonal outgrowth (%)
Protocol: According to the method of M. P. Mattson [M. P. Mattson, Brain Res. Rev., 13, 179, (1988)], the hippocampal region was isolated from 18-day embryos of female Wistar rats and the neurons were dispersed using the papain dissociation system. Hippocampal neuron were suspended in 5% Nu-serum+B27 supplement+Neurobasal medium at 5×10^4 cells/well/2 mL. 2 mL of the cell suspension were inoculated on a poly-D-lysine-coated 36φ dish and the neuron were incubated at 37° C. in a 5% CO2 incubator.
On day 3 of the incubation period, 1 mL of the culture medium was replaced with 1 mL of 5% Nu-serum+B27 supplement+Neurobasal medium containing 2 mM AraC. Each test compound was added to the culture on day 3 and day 7 of the incubation period. On day 9, cells were fixed in a 4% paraformaldehyde solution. The nerve axons of the fixed cells were stained with the Rabbit anti-growth-associated protein-43 polyclonal antibody and the stained cells were quantified using Kurabo neuron outgrowth-quantication software.
The ability (%) of each test compound to promote axonal outgrowth was calculated from the following equation: The ability to promote axonal outgrowth (%)=[(measurement with a compound of interest)/(measurement of control)]×100
Example Compounds shown in Table 25 were used as test compounds and were each added at concentrations of 3 μM and 0.3 μM.
Since bFGF gives a measurement of about 120 in this test, 120 is used as the threshold to determine whether a given compound has the ability to promote axonal outgrowth

[2] = tested on: microsphere (micro-embolism) model; test: Test Example 6: rat microsphere (micro-embolism) model; format: in vivo, Crl:CD(SD) rats; settings: rats, oral 1.0 mg/kg once daily for 10 days (Compound 65 also 0.1 mg/kg); 2 weeks after surgery
From the text: According to the method of Ichiro Date et al. [Journal of Neuroscience Research 78; 442-453 (2004)], 8-week-old male Crl:CD(SD) rats were used. Animals were anesthetized with halothane and midline incision was made. Right carotid artery was separated and a thread was looped around the common carotid artery and external carotid artery. The pterygopalatine artery was temporarily clipped with an aneurysm clip. The blood flow through the common carotid artery and external carotid artery was temporarily interrupted and 0.1 mL of a microsphere suspension composed of microspheres dispersed in a 30% sucrose solution (1800 microspheres/0.1 mL) was injected into the common carotid artery. After injection of the suspension, the puncture of the injection needle was filled with instant glue while the blood flow was interrupted. The blood flow was then restored and the surgical wound was sutured. Neurological symptoms were observed the day following the surgery. The animals were assigned to each treated group at random with respect to the measurements of neurological symptoms, the decrease in body weight from the previous day, and the body weight on that day.
The test compounds used were Example Compound 65, 108, 130, 135 and 137, each of which was administered at a dose of 1.0 mg/kg. Example Compound 65 was administered also at a dose of 0.1 mg/kg. Each compound was orally administered once daily for 10 days starting from the following day of the surgery. Coordinated motor functions were measured 5 times on an accelerated rota-rod (4 to 40 rpm/5 min) 2 weeks after the surgery.
Specifically, FIGS. 11 to 15 show the effect of different compounds 2 weeks after the microsphere injection (rota-rod test standard parameter). The figures show the results of rota-rod tests 2 weeks after the ischemic event in which each compound was orally administered at 1.0 mg/kg once daily for 10 days (Example Compound 65 was administered at 0.1 mg/kg or 1.0 mg/kg). What is shown in the figures is the total time of the 5 measurements on rota-rod as a standard parameter.
***: p<0.0001, Dunnett's multiple range test vs. Vehicle.

[3] = tested on: critical limb ischemia model (left femoral artery excised); test: Test Example 4: lower limb ischemia (critical limb ischemia) model in mice; format: in vivo, Balb/c mice; settings: oral once daily 0.1 or 1.0 mg/kg for 10 days from femoral artery excision, vs Vehicle
Protocol: According to the method of Ichiro Masaki [Circ Res. 90; 966-973 (2002)], the left femoral artery of Balb/c mice was excised to establish a model of critical limb ischemia (n=29 to 30).
Test compounds used were Example Compounds 65, 92, 114, 130, 135 and 136, each of which was orally administered once daily at a dose of 0.1 mg/kg or 1.0 mg/kg for 10 days starting from the day of femoral artery excision.
The results are shown in FIGS. 1 to 6 in which FIGS. 1, 2, 3, 4, 5 and 6 show the results of Example Compounds 65, 92, 114, 130, 135 and 136, respectively.
In the figures, a thick solid line indicates a Vehicle group, a thin dotted line indicates a group administered 0.1 mg/kg/day of each compound, and a thin solid line indicates a group administered 1.0 mg/kg/day of each compound.
*: P<0.05, **: P<0.01, ***: P<0.001 vs Vehicle by Wilcoxon's test.

spinal cord neurons = test: Test Example 3: ability to promote the neurite outgrowth of spinal cord neurons; format: cell-based, Wistar rats; settings: Compound Conc. = 0.1 μM; % of control, day 3
Protocol: According to the method of Martin G. Hanson Jr. [J. Neurosci., 1998 Sep. 15; 18(18): 7361-71], the spinal cord region was isolated from 15-day embryos of female Wistar rats and the cells were dispersed using the papain dissociation system. Neurons were collected using 6.8% Metrizamide density gradient and were suspended in 2% FBS+Leibovitz's −15 medium so that the density of the cells will be 2×10^3 cells/well/200 μL. 200 μL of the cell suspension was inoculated on a poly-D-lysine/laminin-coated 96 well plate and the plate was incubated in an incubator at 37° C. Test compounds were added 1 hour after seeding of cells.
On day 3 of the incubation period, neurons were stained with Calcein-AM and the lengths of neurites were determined using IN Cell Analyzer (GE Healthcare Bioscience).
The ability (%) of each test compound to promote neurite outgrowth was calculated from the following equation: The ability to promote neurite outgrowth (%)=[(measurement with a compound of interest)/(measurement of control)]×100
Example Compounds 65, 71, 74, 92, 130 and 135 were used as test compounds and were each added at a concentration of 0.1 μM.
The results are shown in Table 27. bFGF gives a measurement of about 130 in this test.

chemokine receptor CCR3 = molecular target: T1, chemokine receptor CCR3 (Homo sapiens, UniProt P51677); test: Affinity to chemokine receptor CCR3; format: binding; settings: at a concentration of 10 μM
T1 sequence (P51677 1-355): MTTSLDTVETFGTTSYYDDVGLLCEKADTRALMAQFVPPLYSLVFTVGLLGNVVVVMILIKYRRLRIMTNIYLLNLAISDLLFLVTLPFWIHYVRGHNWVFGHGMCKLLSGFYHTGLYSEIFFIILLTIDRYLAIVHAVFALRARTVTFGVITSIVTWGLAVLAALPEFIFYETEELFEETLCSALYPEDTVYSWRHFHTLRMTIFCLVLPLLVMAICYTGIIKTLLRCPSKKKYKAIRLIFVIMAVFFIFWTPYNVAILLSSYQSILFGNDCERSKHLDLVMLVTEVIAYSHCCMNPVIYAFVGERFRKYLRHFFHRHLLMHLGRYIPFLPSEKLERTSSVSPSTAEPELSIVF
From the text: Although the compounds of the present invention are novel compounds, compounds having a partly similar skeleton are described, for example, in Published Japanese Translation of PCT International Application No. 2003-507456, WO 01/79170 and WO 00/23076.

| Compound | activity at 0.3 µM [1] | activity at 3 µM (hippocampal neurons) | coordinated motor functions, total time of 5 measurements on rota-rod [2] | survival rate of lower limb [3] | Promotion of spinal cord neurite outgrowth (%) (spinal cord neurons) | affinity to chemokine receptor CCR3 (chemokine receptor CCR3) | activity at 3 µM [1] |
| --- | --- | --- | --- | --- | --- | --- | --- |
| Cc1cnc(N)nc1NCC(=O)N(C)C1CCN(CC2CC2)CC1 [Compound 108, 2-(2-amino-5-methylpyrimidine-4-ylamino)-N-(1-(cyclopropylmethyl)piperidine-4-yl)-N-methylacetamide] | 114% | 122% | highly effective in ameliorating ischemic cerebral infarction | – | – | – | – |
| CNc1nccnc1OCC(=O)N(C)C1CCN(Cc2ccccc2)CC1.Cl [Compound 130, N-(1-benzylpiperidine-4-yl)-N-methyl-2-(3-(methylamino)pyrazine-2-yloxy)acetamide hydrochloride] | 118% | 143% | highly effective in ameliorating ischemic cerebral infarction | increased survival rate | 128% | 3.5% | – |
| CN(C(=O)COc1ccc(Cl)nn1)C1CCN(C(=O)C2CC2)CC1 [Compound 135, 2-(6-chloropyridazine-3-yloxy)-N-(1-(cyclopropanecarbonyl)piperidine-4-yl)-N-methylacetamide] | – | 131% | highly effective in ameliorating ischemic cerebral infarction | increased survival rate | 121% | 22% | 140% |
| CN(C)c1ccc(OCC(=O)N(C)C2CCN(C(=O)C3CC3)CC2)nn1 [Compound 136, N-(1-(cyclopropanecarbonyl)piperidine-4-yl)-2-(6-(dimethylamino)pyridazine-3-yloxy)-N-methylacetamide] | 110% | 133% | – | increased survival rate | – | – | – |
| CN(C(=O)COc1ccc(Cl)nn1)C1CCN(Cc2ccccc2)CC1 [Compound 137, N-(1-benzylpiperidine-4-yl)-2-(6-chloropyridazine-3-yloxy)-N-methylacetamide] | – | – | highly effective in ameliorating ischemic cerebral infarction | – | – | – | – |
| Cc1nc(OCC(=O)N(C)C2CCN(C(=O)C3CC3)CC2)nc(C)c1N [Compound 92, 2-(5-amino-4,6-dimethylpyrimidine-2-yloxy)-N-(1-(cyclopropanecarbonyl)piperidine-4-yl)-N-methylacetamide] | – | 127% | – | increased survival rate | 120% | – | 153% |
| CN(C(=O)Cn1cc(F)c(N)nc1=O)C1CCN(Cc2ccccc2)CC1 [Compound 114, 2-(4-amino-5-fluoro-2-oxopyrimidine-1(2H)-yl)-N-(1-benzylpiperidine-4-yl)-N-methylacetamide] | – | 183% | – | increased survival rate | – | – | 125% |
